Data reported in PubChem BioAssay AID849 (SRMLSC, 2007).
Calls of active or inactive are those of the source. No rule for the calls is given here.

System: Saccharomyces cerevisiae lifespan shortening, growth inhibition
Experiment: yeast lifespan shortening compounds, dose response (AID 849);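 also: yeast growth read as optical density after two days at 30 degrees C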

Question: CC12C(=O)N(c3cccc4cccnc34)C(=O)C1C1C=CC2C1 (configuration not stated) was tested. Which IC50 did it give?
Answer: The IC50 was > 100 µM (inactive).

Question: For CC(C)CC(=O)/C(=C\c1ccc(Cl)cc1Cl)n1cncn1, which IC50 is on record?
Answer: Its IC50 is 15.8 µM.

Question: With Cc1ccc(C(NC(=O)C(C)C)c2cc([N+](=O)[O-])c3cccnc3c2O)cc1 (configuration not stated) as the compound, how does the IC50 read?
Answer: Its IC50 is 11.4 µM.

Question: Which IC50 does the source give for CCC1C(=O)N=C(SCC(=O)Nc2ccccc2)NC1=O (configuration not stated) here?
Answer: The IC50 was > 100 µM (inactive).

Question: With O=c1oc2ccccc2cc1-c1cn2cccnc2n1 as the compound, how does the IC50 read?
Answer: Its IC50 is > 100 µM (inactive).

Question: c1ccc(-c2csc3nnc(SCc4ccc5c(c4)OCO5)n23)cc1 was tested. Which IC50 did it give?
Answer: Its IC50 is > 100 µM (inactive).

Question: For COc1ccccc1N1CCN(Cc2cc(Br)c(O)c3ncccc23)CC1, which IC50 is on record?
Answer: Its IC50 is 15.8 µM.

Question: How did the IC50 turn out when Cc1ncc(CC(=O)n2cc(C(=O)c3cc(Cl)ccc3O)cn2)s1 was run?
Answer: The IC50 was 12 µM.

Question: With Cc1cccnc1Nc1nc(-c2ccccn2)cs1 as the compound, how does the IC50 read?
Answer: Its IC50 is 45.7 µM.

Question: Which IC50 does the source give for Cc1ccc(C(C[N+](=O)[O-])n2nc(C)cc2C)cc1 (configuration not stated) here?
Answer: Its IC50 is 19.1 µM.

Question: For CCOc1ccc(-c2[nH]ncc2Oc2cccc(OC)c2)c(O)c1, which IC50 is on record?
Answer: Its IC50 is 22.8 µM.

Question: With O=[N+]([O-])c1ccc(N/N=C/c2ccc[nH]2)cc1 as the compound, how does the IC50 read?
Answer: Its IC50 is > 100 µM (inactive).

Question: For Cc1cccc(C(=O)CC(=O)c2cc(Cl)ccc2O)c1, which IC50 is on record?
Answer: The IC50 was 45.7 µM.

Question: For Cc1ccc(CNC(=O)CS(=O)Cc2nc(-c3cccs3)oc2C)cc1 (configuration not stated), which IC50 is on record?
Answer: The IC50 was > 100 µM (inactive).

Question: Which IC50 does the source give for O=C(/C(=N/N=C/c1ccc(O)c(O)c1O)c1ccccc1)c1ccccc1 here?
Answer: Its IC50 is 25.8 µM.

Question: How did the IC50 turn out when N#CC(c1cccc(Cl)c1)c1ccc2c(C(F)(F)F)cc(C(F)(F)F)nc2n1 (configuration not stated) was run?
Answer: The IC50 was > 100 µM (inactive).

Question: Which IC50 does the source give for CC(=O)n1cc(C(C[N+](=O)[O-])SCCN)c2ccccc21 (configuration not stated) here?
Answer: The IC50 was 8.5 µM.

Question: How did the IC50 turn out when O=C(Nc1nc(-c2ccccn2)cs1)C1COc2ccccc2O1 (configuration not stated) was run?
Answer: Its IC50 is 12.7 µM.

Question: For O=C(OCn1ncc(Cl)c(Cl)c1=O)c1ccc(F)cc1, which IC50 is on record?
Answer: The IC50 was > 100 µM (inactive).

Question: For CCOC(=O)CSc1nnc(CSc2nc(N)c3c(C)c(C)sc3n2)n1-c1ccccc1, which IC50 is on record?
Answer: The IC50 was > 100 µM (inactive).

Question: Which IC50 does the source give for CN1CCN(CC(=O)N2CCn3c4c(c5cc(C6CCCCC6)ccc53)CCCC42)CC1 (configuration not stated) here?
Answer: Its IC50 is > 100 µM (inactive).

Question: CCOC(=O)c1c(N)sc2c(OC)c(Br)ccc12 was tested. Which IC50 did it give?
Answer: Its IC50 is > 100 µM (inactive).

Question: COC(=O)Cn1c2ccc(C)cc2c2nc(C)sc21 was tested. Which IC50 did it give?
Answer: Its IC50 is > 100 µM (inactive).

Question: With Cc1nc2ccccc2c2c1C(=O)N(C)C2=O as the compound, how does the IC50 read?
Answer: Its IC50 is 10.9 µM.

Question: Cc1cc(O)c(/C=N/Nc2ccccc2)c(=O)o1 was tested. Which IC50 did it give?
Answer: The IC50 was 25.2 µM.

Question: How did the IC50 turn out when COc1ccc2nc(NC(=S)N(C)C)sc2c1 was run?
Answer: The IC50 was > 100 µM (inactive).

Question: Nc1ccc(O)c2c1C(=O)c1ccccc1C2=O was tested. Which IC50 did it give?
Answer: Its IC50 is 28.1 µM.

Question: With Cc1ccc(N2NC(C)(c3cccs3)NC2=S)cc1 (configuration not stated) as the compound, how does the IC50 read?
Answer: Its IC50 is > 100 µM (inactive).

Question: How did the IC50 turn out when Cc1ccc(N=Nc2ccc(O)c3ncccc23)cc1 was run?
Answer: The IC50 was 34.3 µM.

Question: For Cc1nn(-c2cccc(C(F)(F)F)c2)c(Cl)c1/C=N/Nc1cccc(C(=O)O)c1, which IC50 is on record?
Answer: Its IC50 is 39.8 µM.

Question: How did the IC50 turn out when Cc1nn2c3ccccc3nc2c2ccccc12 was run?
Answer: The IC50 was 41.6 µM.

Question: Cn1c2ccccc2c(=O)n2c(=O)c3ccccc3cc12 was tested. Which IC50 did it give?
Answer: Its IC50 is 52.5 µM.

Question: CCc1cccc(C)c1NC(=S)NCCc1c(C)[nH]c2ccc(C)cc12 was tested. Which IC50 did it give?
Answer: The IC50 was 41 µM.

Question: With Oc1c(Br)cc(Cl)cc1C=Nc1ccccc1Br as the compound, how does the IC50 read?
Answer: Its IC50 is 27.1 µM.

Question: Which IC50 does the source give for Cc1ccc(NC(=O)ON=C2CCCC2)cc1 here?
Answer: The IC50 was 9.19 µM.

Question: With COc1cccc2c(=O)c3c(cnn3C)n(C)c12 as the compound, how does the IC50 read?
Answer: Its IC50 is 11.7 µM.

Question: For O=C1c2ccccc2NC(c2ccc(-c3ccc(Br)cc3)o2)N1O (configuration not stated), which IC50 is on record?
Answer: The IC50 was 25 µM.

Question: How did the IC50 turn out when Cc1nc2ccc(C(=O)O)cc2[nH]1 was run?
Answer: Its IC50 is > 100 µM (inactive).

Question: How did the IC50 turn out when Clc1cc2nc3ccccn3c2cc1Cl was run?
Answer: The IC50 was 51.5 µM.

Question: How did the IC50 turn out when Cc1cccc(/C=C/C(=O)c2cc(Br)ccc(=O)c2O)c1 was run?
Answer: Its IC50 is 8.97 µM.

Question: With Cc1ccc(-n2nnc3c(=O)n(CC(=O)N4CCC(C)CC4)cnc32)cc1 as the compound, how does the IC50 read?
Answer: The IC50 was > 100 µM (inactive).

Question: For O=C1NC(=S)N(c2ccccc2F)C(=O)/C1=C\c1cccs1, which IC50 is on record?
Answer: Its IC50 is 18.6 µM.

Question: With Cc1cc(C(=O)COC(=O)c2ccc[nH]c2=O)c(C)n1-c1ccc(Br)cc1 as the compound, how does the IC50 read?
Answer: Its IC50 is > 100 µM (inactive).

Question: Which IC50 does the source give for Clc1ccc(COC(Cn2ccnc2)c2ccc(Cl)cc2Cl)cc1 (configuration not stated) here?
Answer: Its IC50 is 0.809 µM.

Question: For CC(N=Cc1cccc(O)c1O)c1ccccc1 (configuration not stated), which IC50 is on record?
Answer: Its IC50 is 9.02 µM.

Question: For Cc1ccc2nc(-c3ccc(NS(C)(=O)=O)cc3)cc(-c3ccccc3)c2c1, which IC50 is on record?
Answer: Its IC50 is 43.2 µM.

Question: O=C(Nc1cccc(N=Cc2cc(Br)cc(Br)c2O)c1)c1ccco1 was tested. Which IC50 did it give?
Answer: The IC50 was 19.3 µM.
